Experimental data as given in patent US6395786B1, “Sleep inducing agent” (Taisho Pharmaceutical Co., Ltd., priority 1998, dated 2002).

Test system: male rhesus monkeys
Assay: Sleep-inducing test by cisternal administration (videotape sleep score)
Format: in vivo
Conditions: 10 μg/monkey, 45 minutes after the administration, FIG. 2
Procedure: [Sleep-inducing Test by Cisternal Administration]
Three male rhesus monkeys weighing 3.6-4.4 kg were individually placed in cages, and the behaviors of the animals were recorded by videotape for an hour before administration of the drug and for 5 hours after administration of the drug. Compound 32 and prostaglandin D2 methyl ester (PGD2) were each dissolved in saline solution and sterilized through a Millipore filter. The drugs were infused cisternally to the monkeys anesthetized with isohalothane inhalation. The doses were 1 μg and 10 μg/0.1 ml/monkey. The same doses of the vehicle were infused cisternally to give a control group. The test was carried out according to the following test schedule.
Week 1: Group treated with vehicle
Week 2: Group treated with 1 μg of Compound 32/monkey
Week 3: Group treated with 10 μg of Compound 32/monkey
Week 4: Group treated with 10 μg of PGD2/monkey
To determine the sleep, the period for which the monkey closed both eyes was measured at intervals of 15 minutes by playing back the recorded videotape, and the results were scored according to the following scales.

In the case of `CCCCC[C@H](O)/C=C/[C@H]1C(=O)C[C@H](O)[C@@H]1C/C=C\CCCC(=O)OC` [prostaglandin D2 methyl ester], the sleep action observed is reported as “transient sleep action”.
